Results: ChEMBL document CHEMBL6083245, “Digoxin and its Na+/K+-ATPase-targeted actions on cardiovascular diseases and cancer” (Bioorg Med Chem, 2024)
pIC50: −log10 of the molar value.

Tests used:
Type in all cases: functional, cell-based
[1] = system: OVCAR-3; assay: Cytotoxicity against human OVCAR-3 cells assessed as reduction in cell growth incubated for 72 hrs by MTT assay; settings: OVCAR-3, 72 h
[2] = system: SW-620; assay: Cytotoxicity against human SW620 cells assessed as reduction in cell growth incubated for 72 hrs by MTT assay; settings: SW-620, 72 h
[3] = system: HT-29; assay: Cytotoxicity against human HT-29 cells assessed as reduction in cell growth incubated for 72 hrs by MTT assay; settings: HT-29, 72 h
[4] = system: HeLa; assay: Antiproliferative activity against human HeLa cells assessed as reduction in cell viability by MTS assay
[5] = system: MDA-MB-435; assay: Cytotoxicity against human MDA-MB-435 cells assessed as reduction in cell growth incubated for 72 hrs by MTT assay; settings: MDA-MB-435, 72 h
[6] = Antiproliferative activity against human NSCLC cells assessed as reduction in cell viability incubated for 48 hrs by Cell-titer Glo luminescent assay
[7] = system: NCI-H1299; assay: Antiproliferative activity against human NCI-H1299 cells assessed as reduction in cell viability incubated for 48 hrs by Cell-titer Glo luminescent assay; settings: NCI-H1299, 48 h
[8] = system: NCI-H82; assay: Antiproliferative activity against human NCI-H82 cells assessed as reduction in cell viability incubated for 48 hrs by Cell-titer Glo luminescent assay; settings: NCI-H82, 48 h
[9] = system: MDA-MB-231; assay: Cytotoxicity against human MDA-MB-231 cells assessed as reduction in cell growth incubated for 72 hrs by MTT assay; settings: MDA-MB-231, 72 h
[10] = system: NCI-H69; assay: Antiproliferative activity against human NCI-H69 cells assessed as reduction in cell viability incubated for 48 hrs by Cell-titer Glo luminescent assay; settings: NCI-H69, 48 h
[11] = system: NCI-H526; assay: Antiproliferative activity against human NCI-H526 cells assessed as reduction in cell viability incubated for 48 hrs by Cell-titer Glo luminescent assay; settings: NCI-H526, 48 h
[12] = system: A549; assay: Antiproliferative activity against human A549 cells assessed as reduction in cell viability incubated for 48 hrs by Cell-titer Glo luminescent assay; settings: A549, 48 h
[13] = system: HCT-8; assay: Cytotoxicity against human HCT-8 cells assessed as reduction in cell growth incubated for 72 hrs by MTT assay; settings: HCT-8, 72 h
[14] = Antiproliferative activity against human NCI-H196 cells assessed as reduction in cell viability incubated for 48 hrs by Cell-titer Glo luminescent assay; settings: NCI-H196, 48 h
[15] = system: NCI-H1963; assay: Antiproliferative activity against human NCI-H1963 cells assessed as reduction in cell viability incubated for 48 hrs by Cell-titer Glo luminescent assay; settings: NCI-H1963, 48 h

pIC50 [4]: 9.70 | pIC50 [7]: 7.30 | pIC50 [8]: 7.30 | pIC50 [10]: 7.30 | pIC50 [11]: 7.30 | pIC50 [12]: 7.30 | pIC50 [15]: 7.30
Compound: C[C@H]1O[C@@H](O[C@H]2[C@@H](O)C[C@H](O[C@H]3[C@@H](O)C[C@H](O[C@H]4CC[C@@]5(C)[C@H](CC[C@@H]6[C@@H]5C[C@@H](O)[C@]5(C)[C@@H](C7=CC(=O)OC7)CC[C@]65O)C4)O[C@@H]3C)O[C@@H]2C)C[C@H](O)[C@@H]1O [DIGOXIN]
pIC50 [1]: 7.00 | pIC50 [2]: 7.00 | pIC50 [3]: 7.00 | pIC50 [5]: 7.00 | pIC50 [6]: 7.30 | pIC50 [9]: 7.00 | pIC50 [13]: 7.00 | pIC50 [14]: 7.30
